Reference: patent publication US8691753B2 (priority 2009, dated 2014)
Where two headings read alike, the source gives them in different places.

Assays:
Type in all cases: biochemical
MMP-12h = MMP-12h (Homo sapiens (Human), UniProt P39900); assay: Inhibition constant (Ki) on MMP-12h; settings: human MMP-12
MMP-13h = MMP-13h (Homo sapiens (Human), UniProt P45452); assay: Inhibition constant (Ki) on MMP-13h; settings: human MMP-13
From the text: (§1) The inhibition constant Ki of these compounds has been determined according to the protocol described by Devel et al, 2006, J. Biol. Chem. (7).
(§2) In this table I and also in table II below, “h” corresponds to human. All of the compounds have therefore been evaluated on human MMPs.

MMP-14h = MMP-14h (Homo sapiens (Human), UniProt P50281); assay: Inhibition constant (Ki) on MMP-14h; settings: human MMP-14
From the text: as §1, §2

MMP-3h = MMP-3h (Homo sapiens (Human), UniProt P08254); assay: Inhibition constant (Ki) on MMP-3h; settings: human MMP-3
Sequence of MMP-3h (P08254 100-477): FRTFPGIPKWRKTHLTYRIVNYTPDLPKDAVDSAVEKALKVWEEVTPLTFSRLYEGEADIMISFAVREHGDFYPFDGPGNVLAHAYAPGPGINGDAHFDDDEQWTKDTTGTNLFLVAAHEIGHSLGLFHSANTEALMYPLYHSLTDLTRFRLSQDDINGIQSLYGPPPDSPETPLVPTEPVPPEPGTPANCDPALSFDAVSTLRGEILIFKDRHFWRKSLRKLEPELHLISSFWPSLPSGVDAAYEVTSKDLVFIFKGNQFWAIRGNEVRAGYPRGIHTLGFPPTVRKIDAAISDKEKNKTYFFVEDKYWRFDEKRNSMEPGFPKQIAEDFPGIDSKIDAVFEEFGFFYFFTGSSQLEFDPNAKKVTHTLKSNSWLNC
From the text: as §1, §2

MMP-10h = MMP-10h (Homo sapiens (Human), UniProt P09238); assay: Inhibition constant (Ki) on MMP-10h; settings: human MMP-10
Sequence of MMP-10h (P09238 99-476): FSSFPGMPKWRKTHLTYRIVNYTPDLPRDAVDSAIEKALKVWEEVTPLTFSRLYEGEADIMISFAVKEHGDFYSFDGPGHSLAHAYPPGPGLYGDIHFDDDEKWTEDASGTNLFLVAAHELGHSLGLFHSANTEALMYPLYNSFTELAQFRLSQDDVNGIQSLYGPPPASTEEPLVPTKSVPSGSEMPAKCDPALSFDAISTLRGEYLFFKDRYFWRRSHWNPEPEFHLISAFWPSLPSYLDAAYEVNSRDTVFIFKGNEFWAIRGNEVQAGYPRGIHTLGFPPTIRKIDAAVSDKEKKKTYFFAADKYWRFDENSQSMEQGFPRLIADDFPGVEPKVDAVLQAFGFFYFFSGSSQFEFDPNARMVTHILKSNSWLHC

MMP-2h = MMP-2h (Homo sapiens (Human), UniProt P08253); assay: Inhibition constant (Ki) on MMP-2h; settings: human MMP-2
Sequence of MMP-2h (P08253 110-660): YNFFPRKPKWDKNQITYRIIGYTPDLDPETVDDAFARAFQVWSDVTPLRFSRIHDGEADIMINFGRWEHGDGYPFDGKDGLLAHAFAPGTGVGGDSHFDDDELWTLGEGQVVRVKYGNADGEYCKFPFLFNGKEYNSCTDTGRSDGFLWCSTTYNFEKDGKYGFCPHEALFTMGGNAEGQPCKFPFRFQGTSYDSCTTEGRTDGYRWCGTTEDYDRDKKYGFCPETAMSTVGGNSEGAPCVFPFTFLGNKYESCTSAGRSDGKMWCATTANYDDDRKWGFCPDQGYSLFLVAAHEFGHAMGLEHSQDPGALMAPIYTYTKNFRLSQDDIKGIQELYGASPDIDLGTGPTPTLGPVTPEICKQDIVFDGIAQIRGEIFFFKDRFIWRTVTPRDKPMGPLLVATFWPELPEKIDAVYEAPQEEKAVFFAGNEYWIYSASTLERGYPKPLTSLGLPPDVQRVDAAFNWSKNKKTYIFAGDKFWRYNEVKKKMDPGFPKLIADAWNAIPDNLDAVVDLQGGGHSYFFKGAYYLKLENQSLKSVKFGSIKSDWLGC
From the text: as §1, §2

MMP-9h = MMP-9h (Homo sapiens (Human), UniProt P14780); assay: Inhibition constant (Ki) on MMP-9h; settings: human MMP-9
Sequence of MMP-9h (P14780 94-707): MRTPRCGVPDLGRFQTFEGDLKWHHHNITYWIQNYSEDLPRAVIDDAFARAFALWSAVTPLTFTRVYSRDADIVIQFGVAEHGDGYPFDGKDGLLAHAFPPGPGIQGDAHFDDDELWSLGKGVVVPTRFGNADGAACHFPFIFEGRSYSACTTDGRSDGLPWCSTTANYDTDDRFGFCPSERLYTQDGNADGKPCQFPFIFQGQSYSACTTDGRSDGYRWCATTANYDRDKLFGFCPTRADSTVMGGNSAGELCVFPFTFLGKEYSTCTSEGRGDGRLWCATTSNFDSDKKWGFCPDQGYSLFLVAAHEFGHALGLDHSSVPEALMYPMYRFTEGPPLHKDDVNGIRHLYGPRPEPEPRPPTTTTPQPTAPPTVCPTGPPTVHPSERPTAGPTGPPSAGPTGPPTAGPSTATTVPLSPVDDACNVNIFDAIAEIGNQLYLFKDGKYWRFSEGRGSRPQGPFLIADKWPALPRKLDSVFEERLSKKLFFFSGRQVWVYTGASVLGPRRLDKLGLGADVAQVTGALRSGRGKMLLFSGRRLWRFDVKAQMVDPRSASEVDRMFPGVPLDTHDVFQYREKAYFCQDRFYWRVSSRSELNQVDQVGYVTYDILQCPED
From the text: as §1, §2

MMP-8h = MMP-8h (Homo sapiens (Human), UniProt P22894); assay: Inhibition constant (Ki) on MMP-8h; settings: human MMP-8
Sequence of MMP-8h (P22894 101-467): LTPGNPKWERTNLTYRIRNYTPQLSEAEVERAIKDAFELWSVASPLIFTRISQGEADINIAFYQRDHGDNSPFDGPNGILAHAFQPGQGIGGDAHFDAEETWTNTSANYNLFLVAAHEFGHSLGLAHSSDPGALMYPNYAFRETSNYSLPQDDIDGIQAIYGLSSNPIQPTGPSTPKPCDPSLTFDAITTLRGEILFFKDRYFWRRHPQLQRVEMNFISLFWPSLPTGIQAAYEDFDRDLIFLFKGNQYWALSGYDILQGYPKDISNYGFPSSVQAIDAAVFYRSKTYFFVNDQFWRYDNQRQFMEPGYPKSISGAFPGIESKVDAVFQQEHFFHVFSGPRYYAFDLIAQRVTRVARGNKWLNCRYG

Sequence of MMP-12h (P39900 106-470): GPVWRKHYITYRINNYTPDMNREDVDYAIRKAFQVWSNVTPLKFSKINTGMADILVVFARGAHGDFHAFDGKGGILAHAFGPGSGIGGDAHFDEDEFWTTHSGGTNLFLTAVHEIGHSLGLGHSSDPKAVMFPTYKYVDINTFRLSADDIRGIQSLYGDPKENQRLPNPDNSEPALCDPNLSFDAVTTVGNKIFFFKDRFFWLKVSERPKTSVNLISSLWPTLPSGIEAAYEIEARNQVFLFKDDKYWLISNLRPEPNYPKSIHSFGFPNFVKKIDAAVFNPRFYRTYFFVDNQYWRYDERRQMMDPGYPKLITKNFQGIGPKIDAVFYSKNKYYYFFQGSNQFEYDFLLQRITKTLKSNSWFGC

| SMILES | Ki (MMP-12h; read-out: Ki MMP-12h) [nM] | Ki (MMP-13h; read-out: Ki MMP-13h) [nM] | Ki (MMP-14h; read-out: Ki MMP-14h) [nM] | Ki (MMP-3h; read-out: Ki MMP-3h) [nM] | Ki (MMP-10h; read-out: Ki MMP-10h) [nM] | Ki (MMP-2h; read-out: Ki MMP-2h) [nM] | Ki (MMP-9h; read-out: Ki MMP-9h) [nM] | Ki (MMP-8h; read-out: Ki MMP-8h) [nM] | Ki (MMP-12h) [nM] | Ki (MMP-13h) [nM] | Ki (MMP-14h) [nM] | Ki (MMP-3h) [nM] | Ki (MMP-10h) [nM] | Ki (MMP-2h) [nM] | Ki (MMP-9h) [nM] | Ki (MMP-8h) [nM] |
| --- | --- | --- | --- | --- | --- | --- | --- | --- | --- | --- | --- | --- | --- | --- | --- | --- |
| NC(=O)[C@H](CCC(=O)O)NC(=O)CCc1cc(-c2ccccc2)no1 [Compound 15, (S)-5-amino-5-oxo-4-(3-(3-phenylisoxazol-5-yl)propanamido)pentanoic acid] | 398 | > 1000 | > 1000 | > 10000 | > 5000 | 762 | > 1000 | 114 | – | – | – | – | – | – | – | – |
| NC(=O)[C@H](CCC(=O)O)NC(=O)[C@H](CCC(=O)O)NC(=O)CCc1ccc(-c2cccc(C(=O)O)c2)cc1 [Compound 56, 4′-(3-((S)-1-((S)-1-amino-4-carboxy-1-oxobutan-2-ylamino)-4-carboxy-1-oxobutan-2-ylamino)-3-oxopropyl)biphenyl-3-carboxylic acid] | 91 | > 5000 | > 10000 | > 10000 | > 10000 | > 5000 | > 1000 | > 1000 | – | – | – | – | – | – | – | – |
| NC(=O)[C@H](CC(=O)O)NC(=O)[C@H](CCC(=O)O)NC(=O)CCc1ccc(-c2cccs2)cc1 [Compound 83, (S)-5-((S)-1-amino-3-carboxy-1-oxopropan-2-ylamino)-5-oxo-4-(3-(4-(thiophen-2-yl)phenyl)propanamido)pentanoic acid] | 14.2 | > 1000 | > 1000 | > 10000 | 435 | 334 | > 1000 | 49 | – | – | – | – | – | – | – | – |
| O=C(O)CC[C@H](NC(=O)CCc1ccc(-c2ccc(-c3ccccc3)cc2)cc1)C(=O)Nc1cccc(CC(=O)O)c1 [Compound 71, (S)-5-(3-(carboxymethyl)phenylamino)-4-(3-(4′-phenylbiphenyl-4-yl)propanamido)-5-oxopentanoic acid] | 1.05 | 10.2 | 696 | 34 | 7.7 | 18.1 | 645 | 99 | – | – | – | – | – | – | – | – |
| NC(=O)CC[C@H](NC(=O)[C@H](CCC(N)=O)NC(=O)CCc1ccc(-c2ccccc2)cc1)C(N)=O [Compound 43, (S)-2-(3-(biphenyl-4-yl)propanamido)-N^1-((S)-1,5-diamino-1,5-dioxopentan-2-yl)pentanediamide] | 306 | 259 | > 5000 | > 1000 | > 5000 | 319 | > 1000 | 657 | – | – | – | – | – | – | – | – |
| C[C@H](NC(=O)[C@H](CCC(=O)O)NC(=O)CCc1ccc(-c2cccs2)cc1)C(N)=O [Compound 85, (S)-5-((S)-1-amino-1-oxopropan-2-ylamino)-5-oxo-4-(3-(4-(thiophen-2-yl)phenyl)propanamido)pentanoic acid] | 25.6 | > 1000 | > 1000 | > 10000 | 835 | 348 | > 5000 | 62 | – | – | – | – | – | – | – | – |
| COc1cccc(-c2ccc(CCC(=O)N[C@@H](CCC(=O)O)C(=O)N[C@@H](CCC(=O)O)C(N)=O)cc2)c1 [Compound 59, (S)-5-amino-4-((S)-4-carboxy-2-(3-(3′-methoxybiphenyl-4-yl)propanamido)butanamido)-5-oxopentanoic acid] | 35 | > 5000 | > 10000 | > 10000 | > 1000 | > 5000 | > 5000 | > 1000 | – | – | – | – | – | – | – | – |
| NC(=O)[C@H](CCC(=O)O)NC(=O)[C@H](CCCC(=O)O)NC(=O)CCc1cc(-c2ccc(-c3cccc(Cl)c3)cc2)no1 [Compound 11, (S)-6-((S)-1-amino-4-carboxy-1-oxobutan-2-ylamino)-5-(3-(3-(3′-chlorobiphenyl-4-yl)isoxazol-5-yl)propanamido)-6-oxohexanoic acid] | – | – | – | – | – | – | – | – | 254 | 191 | > 10000 | 302 | 556 | > 1000 | > 10000 | > 1000 |
| NC(=O)[C@H](CC(=O)O)NC(=O)[C@H](CCC(=O)O)NC(=O)CCc1cc(-c2ccc(-c3ccccc3)cc2)no1 [Compound 18, (S)-5-((S)-1-amino-3-carboxy-1-oxopropan-2-ylamino)-4-(3-(3-(biphenyl-4-yl)isoxazol-5-yl)propanamido)-5-oxopentanoic acid] | – | – | – | – | – | – | – | – | 8 | 30 | > 1000 | 440 | 196 | 93 | > 1000 | 832 |
| NC(=O)[C@H](CCC(=O)O)NC(=O)[C@H](Cc1ccc(O)cc1)NC(=O)CCc1ccc(-c2ccc(-c3ccccc3)cc2)cc1 [Compound 75, (S)-5-amino-4-((S)-3-(4-hydroxyphenyl)-2-(3-(4′-phenylbiphenyl-4-yl)propanamido)propanamido)-5-oxopentanoic acid] | 122 | 232 | > 10000 | 252 | > 1000 | > 1000 | > 10000 | > 5000 | – | – | – | – | – | – | – | – |
| NC(=O)[C@H](CCC(=O)O)NC(=O)[C@H](Cc1c[nH]cn1)NC(=O)CCc1ccc(-c2ccc(-c3ccccc3)cc2)cc1 [Compound 77, (S)-4-((S)-3-(1H-imidazol-4-yl)-2-(3-(4′-phenylbiphenyl-4-yl)propanamido)propanamido)-5-amino-5-oxopentanoic acid] | 234 | 377 | > 10000 | > 1000 | > 5000 | > 1000 | > 50000 | > 1000 | – | – | – | – | – | – | – | – |
| NC(=O)[C@H](Cc1ccc(O)cc1)NC(=O)[C@H](CCC(=O)O)NC(=O)CCc1ccc(-c2cccs2)cc1 [Compound 84, (S)-5-((S)-1-amino-3-(4-hydroxyphenyl)-1-oxopropan-2-ylamino)-5-oxo-4-(3-(4-(thiophen-2-yl)phenyl)propanamido)pentanoic acid] | 20.9 | 584 | > 1000 | > 5000 | 514 | 140 | 859 | 41 | – | – | – | – | – | – | – | – |
| NC(=O)[C@H](CCC(=O)O)NC(=O)[C@H](CC(=O)O)NC(=O)CCc1cc(-c2ccc(-c3cccc(Cl)c3)cc2)no1 [Compound 9, (S)-5-amino-4-((S)-3-carboxy-2-(3-(3-(3′-chlorobiphenyl-4-yl)isoxazol-5-yl)propanamido)propanamido)-5-oxopentanoic acid] | 64 | 35 | > 5000 | 381 | 520 | 91 | > 1000 | 899 | – | – | – | – | – | – | – | – |
| NC(=O)CC[C@H](NC(=O)[C@H](CCC(=O)O)NC(=O)CCc1ccc(-c2ccccc2)cc1)C(N)=O [Compound 42, (S)-4-(3-(biphenyl-4-yl)propanamido)-5-((S)-1,5-diamino-1,5-dioxopentan-2-ylamino)-5-oxopentanoic acid] | – | – | – | – | – | – | – | – | 48 | 884 | > 1000 | > 5000 | > 1000 | 448 | > 1000 | 285 |
| NC(=O)[C@H](Cc1c[nH]cn1)NC(=O)[C@H](CCC(=O)O)NC(=O)CCc1ccc(-c2cccs2)cc1 [Compound 86, (S)-5-((S)-1-amino-3-(1H-imidazol-4-yl)-1-oxopropan-2-ylamino)-5-oxo-4-(3-(4-(thiophen-2-yl)phenyl)propanamido)pentanoic acid] | 34 | > 1000 | > 1000 | > 10000 | > 1000 | 371 | > 1000 | 63 | – | – | – | – | – | – | – | – |
